Laboratory results as given in patent US9221827B2, “Antimicrobial compounds and methods of making and using the same” (Melinta Therapeutics, Inc., priority 2011, dated 2015).

System: Escherichia coli strain ATCC25922
Test: standard microdilution assay to determine minimum inhibitory concentrations (MICs)
Type: cell-based
In short: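 MICs come from CLSI-guided microdilution in 100 μl, run alongside reference-strain performance standards. Values appear as "+" or "−" relative to 16 micrograms/ml, with "N/A" marking missing data.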

[1] = Escherichia coli strain ATCC25922, standard microdilution assay
[2] = Escherichia coli strain ATCC25922, microdilution

Compound | E. coli ATCC25922 MIC [1] | E. coli ATCC25922 MIC [2]
CC(N)COCc1cc(Cl)c(F)c(-c2cc3cn(-c4ccc(CNCCCNC(=N)N)cc4)c(=O)nc3[nH]2)c1 (stereo not shown) [Compound 375] | + (a “+” indicates that the compound has an MIC value of 16 micrograms/ml or less) | 
N=C(N)NCCCNCc1ccc(-n2cc3cc(-c4cc(CCC5(CN)CCC5)cc(F)c4Cl)[nH]c3nc2=O)cc1 [Compound 138] |  | + (a “+” indicates that the compound has an MIC value of 16 micrograms/ml or less)
C[C@H](N)CCCc1cc(SC(F)(F)F)cc(-c2cc3cn(-c4ccc(CNCCCNC(=N)N)cc4)c(=O)nc3[nH]2)c1 [Compound 235] |  | + (a “+” indicates that the compound has an MIC value of 16 micrograms/ml or less)
CC(C)(CN)CCc1cc(OC(F)(F)F)cc(-c2cc3cn(-c4ccc(CNCCCNC(=N)N)cc4)c(=O)nc3[nH]2)c1 [Compound 104] |  | + (a “+” indicates that the compound has an MIC value of 16 micrograms/ml or less)
CC(NCCCNC(=N)N)c1ccc(-n2cc3cc(-c4cc(COC5CC(N)C5)cc(OC(F)(F)F)c4)[nH]c3nc2=O)cc1 (mixture of isomers) [Compound 423] | + (a “+” indicates that the compound has an MIC value of 16 micrograms/ml or less) | 
C[C@H](NCCCNC(=N)N)c1ccc(-n2cc3cc(-c4cc(CC5CC(N)C5)cc(C(F)(F)F)c4)[nH]c3nc2=O)cc1 (stereo partly shown) [Compound 325] |  | + (a “+” indicates that the compound has an MIC value of 16 micrograms/ml or less)
CC(C)Cc1cc(CCC[C@H](C)N)cc(-c2cc3cn(-c4ccc(CNCCCNC(=N)N)cc4)c(=O)nc3[nH]2)c1F [Compound 431] | + (a “+” indicates that the compound has an MIC value of 16 micrograms/ml or less) | 
CC(NCCCNC(=N)N)c1ccc(-n2cc3cc(-c4cc(CC5CC(CN)C5)cc(C(F)(F)F)c4)[nH]c3nc2=O)cc1 (stereo not shown) [Compound 350] | + (a “+” indicates that the compound has an MIC value of 16 micrograms/ml or less) | 
CC(N)CCCc1cc(Cl)c(F)c(-c2cc3cn(-c4ccc(C(NCCCNC(=N)N)C(=O)O)cc4)c(=O)nc3[nH]2)c1 (stereo not shown) [Compound 495] |  | + (a “+” indicates that the compound has an MIC value of 16 micrograms/ml or less)
CC[C@H](NCCCNC(=N)N)c1ccc(-n2cc3cc(-c4cc(CCC[C@H](C)N)cc(Cl)c4F)[nH]c3nc2=O)cc1 [Compound 392] | + (a “+” indicates that the compound has an MIC value of 16 micrograms/ml or less) | 
NCc1cc(CCCO)cc(-c2cc3cn(-c4ccc(CNCCCN=C(N)N)cc4)c(=O)nc3[nH]2)c1 [Compound 79] |  | + (a “+” indicates that the compound has an MIC value of 16 micrograms/ml or less)
CC(CCCN)c1cc(OC(F)(F)F)cc(-c2cc3cn(-c4ccc(CNCCCNC(=N)N)cc4)c(=O)nc3[nH]2)c1 (stereo not shown) [Compound 94] |  | + (a “+” indicates that the compound has an MIC value of 16 micrograms/ml or less)
C[C@H](NCCCNC(=N)N)c1ccc(-n2cc3cc(-c4cc(CSC(C)(C)CN)cc(SC(F)(F)F)c4)[nH]c3nc2=O)cc1 [Compound 377] | + (a “+” indicates that the compound has an MIC value of 16 micrograms/ml or less) | 
